Read-outs that look alike come from different tables or passages of the source.
Tests used:
[1] = Free fraction in rat plasma and brain homogenate by equilibrium dialysis; format: in vitro ADME
Experimental: (§1) Brain disposition was evaluated in male Sprague-Dawley rats (n=3, standard body weight). Briefly, test compound was formulated as a simple suspension, in 0.5% HPMC in water, then administered by oral gavage (5 mg/kg, 5 mL/kg). Four hours post dosing, rats were sacrificed, and terminal blood and brain samples were taken. Blood was obtained via cardiac puncture (0.1 mL) and was added into 0.4 mL CH3CN for precipitation immediately. The samples were stored at −75+/−15° C. prior to analysis. Brain tissue samples were collected after animals were fully exsanguinated, and the tissues were washed with cold saline quickly. After sectioning, brain sections were immediately frozen in liquid nitrogen and stored at −75+/−15° C. prior to analysis. Blood and brain samples were analyzed by LC/MS/MS using an optimized analytical method. Concentrations of test compound in blood and brain were quantified against matrix matched calibration standards. The total blood, plasma, and brain concentration data are presented in Table 2 alongside the calculated brain Kp (total brain concentration:total plasma concentration ratio), the calculated brain kp,uu (unbound brain concentration:unbound plasma concentration ratio), the free fractions in rat plasma and brain, and the in vitro rat blood to plasma distribution profile. The total plasma concentration data were calculated from the total blood concentration data using rat blood to plasma ratio which was measured in vitro (1 μM test compound). For kp,uu determination, the free fraction in rat plasma and brain homogenate were measured in vitro by standard equilibrium dialysis (1 μM test compound and 6 h equilibration against buffer pH 7.4; for rat plasma analysis, 100 mM stock solution of diisopropyl fluorophosphate was added to the pre-warmed rat plasma prior to adding test article).

[2] = Rat Kp, brain disposition after oral gavage; format: in vivo
Experimental: as §1

MAGL = biological target: T1, MAGL (Mus musculus, UniProt O35678); assay: In vivo MAGL inhibition in mouse brain proteomes after oral gavage; conditions: 5 mg/kg oral gavage, 4 h after administration, read-out: MAGL % inh. 5 mg/kg (mouse)
T1 construct: brain proteomes were prepared and analyzed according to previously established methods; from tissue; host or cells: brain of wild-type C57Bl/6J mice
T1 sequence (O35678 1-303): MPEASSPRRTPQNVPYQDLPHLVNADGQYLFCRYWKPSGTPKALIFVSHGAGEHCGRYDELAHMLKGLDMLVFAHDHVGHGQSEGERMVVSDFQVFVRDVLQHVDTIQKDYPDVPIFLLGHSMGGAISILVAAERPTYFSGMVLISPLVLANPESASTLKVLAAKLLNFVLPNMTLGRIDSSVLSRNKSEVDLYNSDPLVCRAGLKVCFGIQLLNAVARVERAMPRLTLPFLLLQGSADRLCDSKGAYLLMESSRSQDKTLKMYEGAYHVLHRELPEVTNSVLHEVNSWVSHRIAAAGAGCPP
Experimental: Inhibitors were administered to wild-type C57B1/6J by oral gavage in a vehicle of polyethylene glycol. Each animal was sacrificed 4 h following administration and brain proteomes were prepared and analyzed according to previously established methods (See Niphakis, M. J., et al. (2011) ACS Chem. Neurosci. and Long, J. Z., et al. Nat. Chem. Biol. 5:37-44).

[3] = In vitro human hepatocyte stability; format: in vitro ADME; conditions: cryopreserved human hepatocytes (pooled donor), human hepatocytes 0.5×10^6 cells/mL, read-out: Scaled-up unbound CLint
Experimental: The metabolic stability of test articles (1 μM) in commercially sourced, pooled donor, cryopreserved human hepatocytes (0.5×10^6 cells/mL) was determined in duplicate. The CLint reactions (250 μL) were initiated by addition of test compound. Aliquots (25 μL) were taken at 0, 15, 30, 45, 60, 90, 120 and 240 minutes and then protein crashed with ice-cold acetonitrile containing internal standard then centrifuged (3220 g for 25 minutes). Supernatant was used for LC-MS/MS analysis. The in vitro half-life (in vitro t1/2) was determined from the slope value: in vitro t1/2=−0.693/k. Conversion of the in vitro t1/2 (in min) into the scale-up unbound intrinsic clearance (Scaled-up unbound CLint, in mL/min/kg) was done using the following equation (mean of duplicate determinations), with data shown in Table 5: Scaled-up unbound CLint=kV/N×scaling factor. V=incubation volume (0.25 mL); N=number of hepatocytes per well ([…]). Scaling factors for in vivo intrinsic clearance prediction are listed below: […]

[4] = Kinetic solubility in PBS; format: physicochemical; conditions: aqueous buffer, kinetic from dmso stock
Summary of the method: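 Solubility measured in PBS at pH 2.0 and pH 7.4, in duplicate, starting from 10 mM DMSO stock; shaken 2 h at RT at 1,100 RPM. Filtrate diluted and quantified by LC-MS/MS (positive MRM) against a DMSO standard of known concentration.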

[5] = Thermodynamic solubility in PBS; format: physicochemical; conditions: aqueous buffer, thermodynamic from solid; PBS pH 7.4; 24 hours at RT
Experimental: The thermodynamic solubility of test article was determined in PBS at pH 7.4 in duplicate. The test article (1.5 mg) in PBS was incubated for 24 hours at RT with shaking at 1100 rpm. Sample was then filtered using a vacuum manifold, diluted, and analyzed by LC-MS/MS. Chromatographic conditions: Phenomenex Synergi 4μ Hydro-PR 80A column (2.0×30 mm) coupled with pre-guard column; mobile phase=0.1% formic acid in acetonitrile and 0.1% formic acid in water; flowrate=0.65 mL/min; column temperature=40 degrees C.; injection volume: 10 μL.
Mobile phase: 0.1% formic acid in acetonitrile (A) and 0.1% formic acid in water (B)
Mass conditions: Turbo spray ion source; ESI ionization model; MRM scan type; Collison gas=6 L/min; Curtain gas=30 L/min; Nebulize gas=50 L/min; Auxiliary gas=50 L/min; Temperature=500 degrees C.; Ion spray voltage=+5500 v (positive MRM).
The filtered solution was analyzed and quantified against a standard of known concentration in DMSO using UPLC coupled with mass spectral peak identification and quantitation. Solubility values of the test articles were calculated using Microsoft Excel as follows (DF is the dilution factor): […]

[6] = In vitro rat blood to plasma ratio; format: in vitro ADME; conditions: 1 μM test compound
Experimental: as §1

[7] = 5 mg/kg oral gavage, 4 h post dosing, mean n = 3

`O=C(Nc1cccnc1)[C@H]1CC12CCN(C(=O)OC(C(F)(F)F)C(F)(F)F)CC2` (single isomer, unassigned) [Example 2] showed a fraction unbound at 6 h, 1 μM ([1]; rat brain homogenate, buffer pH 7.4, read-out: Rat brain free fraction) of 0.024, a fraction unbound at 6 h, 1 μM ([1]; rat plasma, buffer pH 7.4, read-out: Rat plasma free fraction) of 0.078 and a Total plasma concentration ([2]; 5 mg/kg oral gavage, 4 h, calculated from total blood concentration using blood to plasma ratio) of 0.066 µM. The Total blood concentration [2, 7] was 0.049 µM, the Total brain concentration [2, 7] was 0.199 µM and the Kp at 4 h ([2]; male, Sprague-Dawley, po, total brain concentration:total plasma concentration ratio, 5 mg/kg p.o., 4 h) was 3.01. It also gave a Kp uu at 4 h ([2]; male, Sprague-Dawley, po, unbound brain concentration:unbound plasma concentration ratio, 5 mg/kg p.o., 4 h) of 0.925, an inhibition at 5 mg/kg (MAGL) of 100% and a CLint scaled at 1 μM [3] of 34.8 mL/min/kg. It also gave a solubility kinetic at 2 h ([4]; PBS pH 2.0, RT, read-out: pH 2 Solubility (kinetic)) of 30.3 µM, a solubility kinetic at 2 h ([4]; PBS pH 7.4, RT, read-out: pH 7.4 Solubility (kinetic)) of 189 µM and a solubility thermodynamic at 24 h [5] of 91.8 µg/mL. For the same molecule, the blood plasma ratio at 1 μM [6] was 0.833.

— US11434222B2, “MAGL inhibitors” (H. LUNDBECK A/S, priority 2020, dated 2022)
